Measurements as given in paper PMC4775225, “Bromodomain inhibition of the transcriptional coactivators CBP/EP300 as a therapeutic strategy to target the IRF4 network in multiple myeloma” (eLife, 2016).
Like-named read-outs stand apart in the source and are kept apart here.

Columns and labels:
PCAF bromodomain = molecular target: T1, PCAF bromodomain (Homo sapiens, UniProt Q92831); assay: Differential scanning fluorimetry; assay type: binding; conditions: PCAF 4–8 μM, compound 20 μM; read-out: DTm
T1 construct: Differential scanning fluorimetry was carried out with the indicated isolated bromodomains at 4–8 μM
T1 sequence (Q92831 723-827 limits assumed): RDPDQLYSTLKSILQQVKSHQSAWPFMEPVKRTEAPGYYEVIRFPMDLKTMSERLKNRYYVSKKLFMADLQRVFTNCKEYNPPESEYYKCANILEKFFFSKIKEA
Experimental: (§1) Variable buffer compositions were used for the different bromodomain proteins with 12X SYPRO orange dye, 20 μM of the compounds or equivalent percentage of DMSO, and 4–8 µM of the indicated protein. […] The melting temperature (Tm) for each sample was determined using the ViiA7 software (version 1.2.2) and the ΔTm was calculated by subtracting the Tm of the control from the Tm of the compound treated sample.

TAF1 BD1 BD2 = molecular target: T2, TAF1 BD1 BD2 (Homo sapiens, UniProt P21675); assay: Differential scanning fluorimetry; assay type: binding; conditions: TAF1 BD1 BD2 4–8 μM, compound 20 μM; read-out: DTm
T2 construct: Differential scanning fluorimetry was carried out with the indicated isolated bromodomains at 4–8 μM
T2 sequence (P21675 1397-1628 limits assumed): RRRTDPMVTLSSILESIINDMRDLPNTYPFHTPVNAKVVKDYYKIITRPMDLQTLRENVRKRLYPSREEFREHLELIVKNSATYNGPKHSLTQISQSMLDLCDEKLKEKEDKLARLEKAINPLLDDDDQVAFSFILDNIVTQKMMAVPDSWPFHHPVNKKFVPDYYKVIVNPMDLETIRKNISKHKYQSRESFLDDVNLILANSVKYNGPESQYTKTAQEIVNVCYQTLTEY
Experimental: as §1

380 = assay: Viability, resazurin, 6 days; assay type: cell-based; conditions: Homo sapiens, 144 h, 380, ALL
Experimental: (§2) Cells were plated at 5000–10000 cells per well of 96-well plates containing titrations of the compounds as indicated. After incubation, the cells were incubated with 500 μg/ml resazurin (Sigma) in PBS for 2–8 hr, and fluorescence was measured (Ex 530 nm, Em 590 nm). Cell cycle analysis was performed as described previously ([Mertz et al., 2011]). For visualization, DNA content histograms were generated with GraphPad Prism. Dose-response curves were generated by plotting the normalized percent growth, percent sub-G1 and percent increase in G0/G1 at each dose values. GI50 values were determined as the concentration at which viability was 50% of the DMSO value and calculated by a four-parameter non-linear regression model in GraphPad Prism.

EJM = assay: Viability, resazurin, 6 days; assay type: cell-based; conditions: Homo sapiens, 144 h, myeloma
Experimental: as §2

JJN3 = assay: Viability, resazurin, 6 days; assay type: cell-based; conditions: Homo sapiens, JJN-3, 144 h, JJN3, myeloma
Experimental: as §2

Jurkat = assay: Viability, resazurin, 6 days; assay type: cell-based; conditions: Homo sapiens, 144 h, ALL
Experimental: as §2

K562 = assay: Viability, resazurin, 6 days; assay type: cell-based; conditions: Homo sapiens, 144 h, K562, CML
Experimental: as §2

KMS12BM = assay: Viability, resazurin, 6 days; assay type: cell-based; conditions: Homo sapiens, KMS-12-BM, 144 h, myeloma
Experimental: as §2

KMS20 = assay: Viability, resazurin, 6 days; assay type: cell-based; conditions: Homo sapiens, KMS-20, 144 h, KMS20, myeloma
Experimental: as §2

KMS21BM = assay: Viability, resazurin, 6 days; assay type: cell-based; conditions: Homo sapiens, KMS-21BM, 144 h, myeloma
Experimental: as §2

KMS26 = assay: Viability, resazurin, 6 days; assay type: cell-based; conditions: Homo sapiens, KMS-26, 144 h, KMS26, myeloma
Experimental: as §2

KMS28PE = assay: Viability, resazurin, 6 days; assay type: cell-based; conditions: Homo sapiens, KMS-28PE, 144 h, myeloma
Experimental: as §2

Kasumi-2 = assay: Viability, resazurin, 6 days; assay type: cell-based; conditions: Homo sapiens, 144 h, Kasumi-2, AML
Experimental: as §2

ML2 = assay: Viability, resazurin, 6 days; assay type: cell-based; conditions: Homo sapiens, ML-2, 144 h, ML2, AML
Experimental: as §2

MN-60 = assay: Viability, resazurin, 6 days; assay type: cell-based; conditions: Homo sapiens, 144 h, MN-60, ALL
Experimental: as §2

MOLM-13 = assay: Viability, resazurin, 6 days; assay type: cell-based; conditions: Homo sapiens, 144 h, MOLM-13, AML
Experimental: as §2

MOLT4 = assay: Viability, resazurin, 6 days; assay type: cell-based; conditions: Homo sapiens, MOLT-4, 144 h, MOLT4, ALL
Experimental: as §2

MV411 = assay: Viability, resazurin, 6 days; assay type: cell-based; conditions: Homo sapiens, MV4-11, 144 h, MV411, AML
Experimental: as §2

Molt-16 = assay: Viability, resazurin, 6 days; assay type: cell-based; conditions: Homo sapiens, 144 h, Molt-16, ALL
Experimental: as §2

OCI-AML-2 = assay: Viability, resazurin, 6 days; assay type: cell-based; conditions: Homo sapiens, OCI-AML2, 144 h, OCI-AML-2, AML
Experimental: as §2

OCI-AML-3 = assay: Viability, resazurin, 6 days; assay type: cell-based; conditions: Homo sapiens, 144 h, OCI-AML-3, AML
Experimental: as §2

OCI-AML-5 = assay: Viability, resazurin, 6 days; assay type: cell-based; conditions: Homo sapiens, 144 h, OCI-AML-5, AML
Experimental: as §2

REH = assay: Viability, resazurin, 6 days; assay type: cell-based; conditions: Homo sapiens, 144 h, ALL
Experimental: as §2

SD-1 = assay: Viability, resazurin, 6 days; assay type: cell-based; conditions: Homo sapiens, 144 h, SD-1, ALL
Experimental: as §2

SEM cells = assay: Viability, resazurin, 6 days; assay type: cell-based; conditions: Homo sapiens, 144 h, ALL
Experimental: as §2

SKM-1 = assay: Viability, resazurin, 6 days; assay type: cell-based; conditions: Homo sapiens, 144 h, SKM-1, AML
Experimental: as §2

Tanoue = assay: Viability, resazurin, 6 days; assay type: cell-based; conditions: Homo sapiens, 144 h, ALL
Experimental: as §2

U266 = assay: Viability, resazurin, 6 days; assay type: cell-based; conditions: Homo sapiens, U-266, 144 h, U266, myeloma
Experimental: as §2

VAL = assay: Viability, resazurin, 6 days; assay type: cell-based; conditions: Homo sapiens, 144 h, ALL
Experimental: as §2

MYC mRNA = MYC mRNA expression, qRT-PCR; assay type: cell-based, human; conditions: for IC50: Homo sapiens, read-out: IC50, inhibition of MYC mRNA expression; for log2FC (MYC): 2.5 μM, 6 hr, log2 fold change relative to DMSO
Experimental: Total RNA was prepared with an RNeasy Mini Kit (Qiagen, Inc.; Hilden, Germany) with on column DNAse digestion and submitted to Ocean Ridge Biosciences (Palm Beach Gardens, FL) for sequencing and mapping. The data in RPKM for each gene with compound treatment was compared to DMSO treatment, and log2 fold changes were used for further analysis. Rank ordered gene lists were used for Gene Set Enrichment Analysis ([Subramanian et al., 2005]). RNA preparation, cDNA synthesis, and qRT-PCR were performed as described ([Mertz et al., 2011]). For dose titration experiments, cells in 96 -well plates were lysed in lysis buffer (1% Triton X-100, […] pH 2.5) and used directly for cDNA synthesis and qRT-PCR. Primer sequences can be found in Supplementary file 1.

| Compound | ΔTm at 20 µM (PCAF bromodomain) | ΔTm at 20 µM (TAF1 BD1 BD2) | GI50 380 | GI50 (EJM) | GI50 (JJN3) | GI50 (Jurkat) | GI50 (K562) | GI50 (KMS12BM) | GI50 (KMS20) | GI50 (KMS21BM) | GI50 (KMS26) | GI50 (KMS28PE) | GI50 (Kasumi-2) | GI50 (ML2) | GI50 (MN-60) | GI50 (MOLM-13) | GI50 (MOLT4) | GI50 (MV411) | GI50 (Molt-16) | GI50 (OCI-AML-2) | further results |
| --- | --- | --- | --- | --- | --- | --- | --- | --- | --- | --- | --- | --- | --- | --- | --- | --- | --- | --- | --- | --- | --- |
| CCC(=O)N1CCOc2c(cc(-c3ccc(OC)c(OC)c3)cc2OC[C@H]2CCCN(C)C2)C1 [I-CBP112] | -0.08 °C | 0.12 °C | > 20 µM | 14.6 µM | 11.2 µM | > 20 µM | > 20 µM | 2.36 µM | 2.97 µM | 3.26 µM | 2.3 µM | > 20 µM | 8.12 µM | > 20 µM | > 20 µM | 15.7 µM | > 20 µM | 13.1 µM | 17.6 µM | 9.7 µM | GI50 (OCI-AML-3): 5.51 µM; GI50 (OCI-AML-5): > 20 µM; GI50 (REH): > 20 µM; GI50 (SD-1): 13.5 µM; GI50 (SEM cells): 5.34 µM; GI50 (SKM-1): 15.9 µM; GI50 (Tanoue): > 20 µM; GI50 (U266): 7.61 µM; GI50 (VAL): 14.2 µM; IC50 (MYC mRNA; OPM-2, OPM2, 6 hr): 6.1 µM; IC50 (MYC mRNA; LP-1, 6 hr): 11.3 µM |
| COc1ccc(CCc2nc3cc(-c4c(C)noc4C)ccc3n2C[C@H](C)N2CCOCC2)cc1Cl [SGC-CBP30] | -0.08 °C | 0.12 °C | 15.6 µM | 3.87 µM | 2.53 µM | 12 µM | 8.86 µM | 1.3 µM | 1.05 µM | 1.27 µM | 1.34 µM | 17.9 µM | 3.77 µM | 6.65 µM | 12.3 µM | 6.93 µM | 7.62 µM | 3.33 µM | 7.98 µM | 3.68 µM | GI50 (OCI-AML-3): 3.49 µM; GI50 (OCI-AML-5): > 20 µM; GI50 (REH): 18.5 µM; GI50 (SD-1): 7.28 µM; GI50 (SEM cells): 2.83 µM; GI50 (SKM-1): 6.61 µM; GI50 (Tanoue): 8.88 µM; GI50 (U266): 2.63 µM; GI50 (VAL): 7.54 µM; log2FC (MYC) (MYC mRNA; AMO1): -1.13; log2FC (MYC) (MYC mRNA; H929): -1.24; IC50 (MYC mRNA; OPM-2, OPM2, 6 hr): 2.3 µM; IC50 (MYC mRNA; LP-1, 6 hr): 2.5 µM; log2FC (MYC) (MYC mRNA; KMM1): -0.48; log2FC (MYC) (MYC mRNA; KMS28BM): -0.63; log2FC (MYC) (MYC mRNA; LP1): -1.07; log2FC (MYC) (MYC mRNA; MOLP8): -0.64; log2FC (MYC) (MYC mRNA; OPM2): -0.71; log2FC (MYC) (MYC mRNA; RPMI8226): -0.49; log2FC (MYC) (MYC mRNA; RS411): -0.56 |
